{
  "source": "patent US6281248A",
  "about": "“Composition for treating asthma” (priority 2000, dated 2001)",
  "key": {"[1]": {"experiment": "In vitro biochemical testing of N-demethylsertraline"}, "[2]": {"experiment": "In vivo pharmacological testing of N-demethylsertraline"}, "[3]": {"experiment": "Desmethylsertraline pharmacokinetics, day 1 to day 14", "assay_type": "in vivo"}, "[4]": {"system": "plasma protein binding of warfarin", "experiment": "Plasma protein binding of warfarin", "assay_type": "in vitro ADME", "settings": "sertraline up to 300 ng/mL, desmethylsertraline up to 200 ng/mL"}, "[5]": {"system": "plasma protein binding of propranolol", "experiment": "Plasma protein binding of propranolol", "assay_type": "in vitro ADME", "settings": "sertraline up to 300 ng/mL, desmethylsertraline up to 200 ng/mL"}, "Metabolism": {"experiment": "Metabolism", "settings": "in vivo"}, "[6]": {"experiment": "Plasma clearance in elderly patients"}, "[7]": {"experiment": "Solubility of the present invention", "assay_type": "physicochemical"}, "[8]": {"experiment": "In vitro protein binding with radiolabeled 3H-sertraline", "assay_type": "in vitro ADME", "settings": "serum, 20 to 500 ng/mL, read-out: binding to serum proteins (converted)"}, "[9]": {"experiment": "Electrocardiograms of patients in double-blind trials", "assay_type": "in vivo, human", "settings": "774 patients"}, "[10]": {"system": "beta-adrenergic blocking ability of atenolol", "experiment": "Interaction with atenolol in healthy male subjects", "assay_type": "in vivo, human", "settings": "100 mg"}, "bacteria": {"system": "bacteria", "experiment": "Bacterial mutation assay", "assay_type": "cell-based", "settings": "with or without metabolic activation"}, "mouse lymphoma": {"system": "mouse lymphoma", "experiment": "Mouse lymphoma mutation assay", "assay_type": "cell-based", "settings": "with or without metabolic activation"}, "[11]": {"settings": "single dose, with vs without food"}, "[12]": {"experiment": "not given", "remark": "listed apart in the source"}, "[13]": {"experiment": "not given", "remark": "listed apart in the source"}, "clinical [14]": {"experiment": "clinical", "settings": "human, plasma"}, "clinical [15]": {"experiment": "clinical", "settings": "human, in vivo"}, "clinical [16]": {"experiment": "clinical", "settings": "human, in vivo, mean half-life"}, "clinical [17]": {"experiment": "clinical", "settings": "human, in vivo", "remark": "listed apart in the source"}, "[18]": {"system": "dopamine neuronal reuptake", "experiment": "In vitro neuronal dopamine reuptake", "settings": "animals"}},
  "data": [
    {"smiles": "N[C@H]1CC[C@@H](c2ccc(Cl)c(Cl)c2)c2ccccc21", "note": "[N-demethylsertraline]", "values": [
      {"measurement": "activity in in vitro biochemical testing relative to sertraline", "setting": "[1]", "value": "substantially less active than sertraline"},
      {"measurement": "activity in in vivo pharmacological testing relative to sertraline", "setting": "[2]", "value": "substantially less active than sertraline"},
      {"measurement": "increase in AUC (0-24 hour) between day 1 and day 14", "setting": "[3]; day 1 to day 14", "value": "5-9 fold"},
      {"measurement": "increase in Cmax between day 1 and day 14", "setting": "[3]; day 1 to day 14", "value": "5-9 fold"},
      {"measurement": "increase in Cmin between day 1 and day 14", "setting": "[3]; day 1 to day 14", "value": "5-9 fold"},
      {"measurement": "time and dose dependence of AUC (0-24 hour), Cmax, and Cmin", "setting": "[3]; in vivo", "value": "time-related, dose dependent increases"},
      {"measurement": "alteration of plasma protein binding of warfarin", "setting": "[4]", "value": "did not alter"},
      {"measurement": "alteration of plasma protein binding of propranolol", "setting": "[5]", "value": "did not alter"},
      {"measurement": "metabolic pathway", "setting": "Metabolism", "value": "oxidative deamination and subsequent reduction, hydroxylation, and glucuronide conjugation"},
      {"measurement": "clearance in older males", "setting": "[6]; older males", "value": "decreased clearance"}
    ]},
    {"smiles": "CN[C@H]1CC[C@@H](c2ccc(Cl)c(Cl)c2)c2ccccc21.Cl", "note": "[sertraline, (1S-cis)-4-(3,4-dichlorophenyl)-1,2,3,4-tetrahydro-N-methyl-1-naphthalenamine hydrochloride]", "values": [
      {"measurement": "solubility in ethanol", "setting": "[7]; ethanol", "value": "sparing soluble"},
      {"measurement": "solubility in isopropyl alcohol", "setting": "[7]; isopropyl alcohol", "value": "slightly soluble"},
      {"measurement": "solubility in water", "setting": "[7]; water", "value": "slightly soluble"},
      {"measurement": "fraction unbound", "setting": "[8]", "value": 0.02},
      {"measurement": "ECG abnormalities", "setting": "[9]", "value": "not associated with the development of significant ECG abnormalities"},
      {"measurement": "effect on the beta-adrenergic blocking ability of atenolol", "setting": "[10]", "value": "no effect"},
      {"measurement": "genotoxic effects, bacterial mutation assay", "setting": "bacteria", "value": "no genotoxic effects"},
      {"measurement": "genotoxic effects, mouse lymphoma mutation assay", "setting": "mouse lymphoma", "value": "no genotoxic effects"},
      {"measurement": "time to steady-state plasma levels", "setting": "once-daily dosing, based on half-life", "value": "approximately one"},
      {"measurement": "Cmax dose proportionality", "setting": "single dose, 50 to 200 mg", "value": "proportional to dose"},
      {"measurement": "AUC with food", "setting": "[11]", "value": "slightly increased"},
      {"measurement": "Cmax increase with food", "setting": "[11]", "value": 25, "unit": "%"},
      {"measurement": "unchanged sertraline in the urine", "setting": "[12]", "value": "not detectable"},
      {"measurement": "mean half-life", "setting": "[13]; human, in vivo", "value": 27.8, "unit": "h"},
      {"measurement": "gender associated differences", "setting": "[13]; pediatric patients, males and females", "value": "No gender associated differences were observed"},
      {"measurement": "half-life", "setting": "clinical [14]", "value": "~1560", "unit": "min"},
      {"measurement": "dose excreted at 216 h", "setting": "clinical [15]", "value": "12 to 14", "unit": "%"},
      {"measurement": "half-life", "setting": "clinical [16]", "value": 1570, "unit": "min"},
      {"measurement": "half-life", "setting": "clinical [17]", "value": 1630, "unit": "min"},
      {"measurement": "first pass metabolism", "setting": "Metabolism", "value": "extensive first pass metabolism"},
      {"measurement": "metabolic pathway", "setting": "Metabolism", "value": "oxidative deamination and subsequent reduction, hydroxylation, and glucuronide conjugation"},
      {"measurement": "principal initial pathway of metabolism", "setting": "Metabolism", "value": "N-demethylation"},
      {"measurement": "effects on dopamine neuronal reuptake", "setting": "[18]", "value": "only very weak effects"},
      {"measurement": "plasma clearance lower than in younger individuals", "setting": "[6]; elderly, 100 mg/day for 14 days, vs 25 to 32 y.o.", "value": "approximately 40%"}
    ]}
  ]
}
